Test results reported in patent US10582709B2, “Butyrolactones as herbicides” (FMC Corporation, priority 2015, dated 2020).

Assays:
Assay type in all cases: in vivo
[1] = tested on: barnyardgrass (Echinochloa crus-galli); assay: Test B flooded paddy test, barnyardgrass; conditions: 250 g ai/ha; applied to paddy water at 2-leaf stage; 13 to 15 d; scale 0 no effect to 100 complete control
In short: (§1)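 Ratings use a 0-100 visual scale, where 100 is complete control, and compare treated plants with controls after 13 to 15 d of greenhouse growth. Compound went straight into paddy water kept 3 cm over the soil surface, applied to seedlings at the 2-leaf stage.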

[2] = tested on: ducksalad (Heteranthera limosa); assay: Test B flooded paddy test, ducksalad; conditions: 250 g ai/ha; applied to paddy water at 2-leaf stage; 13 to 15 d; scale 0 no effect to 100 complete control
In short: as §1

[3] = tested on: rice (Oryza sativa); assay: Test B flooded paddy test, rice; conditions: 250 g ai/ha; applied to paddy water at 2-leaf stage; 13 to 15 d; scale 0 no effect to 100 complete control
In short: as §1

[4] = tested on: sedge, umbrella (small-flower umbrella sedge, Cyperus difformis); assay: Test B flooded paddy test, umbrella sedge; conditions: 250 g ai/ha; applied to paddy water at 2-leaf stage; 13 to 15 d; scale 0 no effect to 100 complete control
In short: as §1

[5] = tested on: barnyardgrass (Echinochloa crus-galli); assay: Test A preemergence, barnyardgrass; conditions: visual rating after approx. 10 d, 0 to 100 scale, 0 no effect, 100 complete control
In short: (§2)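 Herbicidal effect scored by eye on 0–100 (complete control = 100) about 10 d after spraying in a greenhouse. Formulation was a non-phytotoxic solvent blend with surfactant, applied to soil at seeding or to seedlings at the one- to two-leaf stage.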

[6] = tested on: crabgrass (large crabgrass, Digitaria sanguinalis); assay: Test A preemergence, crabgrass; conditions: visual rating after approx. 10 d, 0 to 100 scale, 0 no effect, 100 complete control
Source text: (§3) Seeds of plant species selected from barnyardgrass (Echinochloa crus-galli), crabgrass (large crabgrass, Digitaria sanguinalis), kochia (Kochia scoparia), ragweed (common ragweed, Ambrosia elatior), morningglory (Ipomoea spp.), velvetleaf (Abutilon theophrasti), ryegrass, Italian (Italian ryegrass, Lolium multiflorum), foxtail, giant (giant foxtail, Setaria faberii), wheat (Triticum aestivum), corn (Zea mays), and pigweed (Amaranthus retroflexus), were planted into a blend of loam soil and sand and treated preemergence with a directed soil spray using test chemicals formulated in a non-phytotoxic solvent mixture which included a surfactant. At the same time, plants selected from these crop and weed species and also blackgrass (Alopecurus myosuroides), and galium (catchweed bedstraw, Galium aparine), were planted in pots containing the same blend of loam soil and sand and treated with postemergence applications of test chemicals formulated in the same manner. Plants ranged in height from 2 to 10 cm and were in the one- to two-leaf stage for the postemergence treatment. Treated plants and untreated controls were maintained in a greenhouse for approximately 10 d, after which time all treated plants were compared to untreated controls and visually evaluated for injury. Plant response ratings, summarized in Table A, are based on a 0 to 100 scale where 0 is no effect and 100 is complete control. A dash (-) response means no test result.

[7] = tested on: morningglory (Ipomoea spp.); assay: Test A preemergence, morningglory; conditions: visual rating after approx. 10 d, 0 to 100 scale, 0 no effect, 100 complete control
Source text: as §3

[8] = tested on: velvetleaf (Abutilon theophrasti); assay: Test A preemergence, velvetleaf; conditions: visual rating after approx. 10 d, 0 to 100 scale, 0 no effect, 100 complete control
Source text: as §3

[9] = tested on: foxtail, giant (giant foxtail, Setaria faberii); assay: Test A preemergence, giant foxtail; conditions: visual rating after approx. 10 d, 0 to 100 scale, 0 no effect, 100 complete control
In short: as §2

[10] = tested on: wheat (Triticum aestivum); assay: Test A preemergence, wheat; conditions: visual rating after approx. 10 d, 0 to 100 scale, 0 no effect, 100 complete control
Source text: as §3

[11] = tested on: corn (Zea mays); assay: Test A preemergence, corn; conditions: visual rating after approx. 10 d, 0 to 100 scale, 0 no effect, 100 complete control
Source text: as §3

[12] = tested on: pigweed (Amaranthus retroflexus); assay: Test A preemergence, pigweed; conditions: visual rating after approx. 10 d, 0 to 100 scale, 0 no effect, 100 complete control
In short: as §2

[13] = tested on: barnyardgrass (Echinochloa crus-galli); assay: Test A postemergence, barnyardgrass; conditions: visual rating after approx. 10 d, 0 to 100 scale, 0 no effect, 100 complete control
In short: as §2

[14] = tested on: crabgrass (large crabgrass, Digitaria sanguinalis); assay: Test A postemergence, crabgrass; conditions: visual rating after approx. 10 d, 0 to 100 scale, 0 no effect, 100 complete control
Source text: as §3

[15] = tested on: morningglory (Ipomoea spp.); assay: Test A postemergence, morningglory; conditions: visual rating after approx. 10 d, 0 to 100 scale, 0 no effect, 100 complete control
Source text: as §3

[16] = tested on: velvetleaf (Abutilon theophrasti); assay: Test A postemergence, velvetleaf; conditions: visual rating after approx. 10 d, 0 to 100 scale, 0 no effect, 100 complete control
Source text: as §3

[17] = tested on: foxtail, giant (giant foxtail, Setaria faberii); assay: Test A postemergence, giant foxtail; conditions: visual rating after approx. 10 d, 0 to 100 scale, 0 no effect, 100 complete control
In short: as §2

[18] = tested on: wheat (Triticum aestivum); assay: Test A postemergence, wheat; conditions: visual rating after approx. 10 d, 0 to 100 scale, 0 no effect, 100 complete control
In short: as §2

[19] = tested on: corn (Zea mays); assay: Test A postemergence, corn; conditions: 1000 g ai/ha, visual rating after approx. 10 d, 0 to 100 scale, 0 no effect, 100 complete control
In short: as §2

[20] = tested on: pigweed (Amaranthus retroflexus); assay: Test A postemergence, pigweed; conditions: visual rating after approx. 10 d, 0 to 100 scale, 0 no effect, 100 complete control
In short: as §2

O=C(Nc1ccccc1C(F)(F)F)C1C(=O)OCC1c1ccc(F)cc1 (stereo not drawn) [Compound 6]
80: Plant response rating, Crabgrass ([6]; 1000 g ai/ha) | Plant response rating, Foxtail, Giant ([9]; 1000 g ai/ha) | Plant response rating, Crabgrass ([14]; 1000 g ai/ha) | Plant response rating, Foxtail, Giant ([17]; 1000 g ai/ha)
0: Plant response rating, Flood, Barnyardgrass [1] | Plant response rating, Flood, Ducksalad [2] | Plant response rating, Flood, Rice [3] | Plant response rating, Flood, Sedge, Umbrella [4] | Plant response rating, Morningglory ([7]; 1000 g ai/ha) | Plant response rating, Velvetleaf ([8]; 1000 g ai/ha) | Plant response rating, Wheat ([10]; 1000 g ai/ha) | Plant response rating, Corn ([11]; 1000 g ai/ha) | Plant response rating, Pigweed ([12]; 1000 g ai/ha) | Plant response rating, Morningglory ([15]; 1000 g ai/ha) | Plant response rating, Velvetleaf ([16]; 1000 g ai/ha) | Plant response rating, Wheat ([18]; 1000 g ai/ha) | Plant response rating, Corn [19] | Plant response rating, Pigweed ([20]; 1000 g ai/ha)
20: Plant response rating, Barnyardgrass ([5]; 1000 g ai/ha) | Plant response rating, Barnyardgrass ([13]; 1000 g ai/ha)

O=C(Nc1ccccc1Cl)C1C(=O)OCC1c1ccc(F)c(F)c1 (racemic) [Compound 3]
50: Plant response rating, Crabgrass ([6]; 500 g ai/ha) | Plant response rating, Foxtail, Giant ([17]; 125 g ai/ha)
30: Plant response rating, Barnyardgrass ([5]; 500 g ai/ha)
0: Plant response rating, Flood, Barnyardgrass [1] | Plant response rating, Flood, Ducksalad [2] | Plant response rating, Flood, Rice [3] | Plant response rating, Flood, Sedge, Umbrella [4] | Plant response rating, Barnyardgrass ([5]; 125 g ai/ha) | Plant response rating, Morningglory ([7]; 125 g ai/ha) | Plant response rating, Morningglory ([7]; 500 g ai/ha) | Plant response rating, Velvetleaf ([8]; 125 g ai/ha) | Plant response rating, Velvetleaf ([8]; 500 g ai/ha) | Plant response rating, Wheat ([10]; 125 g ai/ha) | Plant response rating, Wheat ([10]; 500 g ai/ha) | Plant response rating, Corn ([11]; 125 g ai/ha) | Plant response rating, Corn ([11]; 500 g ai/ha) | Plant response rating, Pigweed ([12]; 125 g ai/ha) | Plant response rating, Pigweed ([12]; 500 g ai/ha) | Plant response rating, Barnyardgrass ([13]; 125 g ai/ha) | Plant response rating, Barnyardgrass ([13]; 500 g ai/ha) | Plant response rating, Morningglory ([15]; 125 g ai/ha) | Plant response rating, Morningglory ([15]; 500 g ai/ha) | Plant response rating, Velvetleaf ([16]; 125 g ai/ha) | Plant response rating, Velvetleaf ([16]; 500 g ai/ha) | Plant response rating, Wheat ([18]; 125 g ai/ha) | Plant response rating, Wheat ([18]; 500 g ai/ha) | Plant response rating, Pigweed ([20]; 125 g ai/ha) | Plant response rating, Pigweed ([20]; 500 g ai/ha)
80: Plant response rating, Foxtail, Giant ([9]; 500 g ai/ha)
60: Plant response rating, Crabgrass ([14]; 125 g ai/ha) | Plant response rating, Foxtail, Giant ([17]; 500 g ai/ha)
70: Plant response rating, Foxtail, Giant ([9]; 125 g ai/ha) | Plant response rating, Crabgrass ([14]; 500 g ai/ha)
40: Plant response rating, Crabgrass ([6]; 125 g ai/ha)
